Source: PubChem BioAssay AID720570 (Broad Institute, 2013)
The source made the active and inactive calls.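 How the source made its calls: active means cell-killing curve crosses a set limit at a concentration no more than twice the top valid dose; inconclusive means flat curve with a 30 to 70% loss, or a poor fit; inactive means signal rising instead of falling, and the rest.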

experiment: TC71 Ewing sarcoma cell killing, confirmation, luminescence, cherry-picked samples, retest (AID 720570); details: TC71 Ewing sarcoma viability, CellTiter-Glo ATP, 72 h; at 23.5 µM (top of the series)

SMILES	activity change, negative = cytotoxicity
COC(=O)C[C@@H]1CC[C@@H]2[C@@H](COc3ccc(NC(=O)Nc4cccc(Cl)c4)cc3C(=O)N2C)O1	-4.34% (inactive)
N#C[C@H]1[C@H](c2ccc(C#Cc3ccccc3F)cc2)[C@@H](CO)N1C(=O)C1CCCCC1	-17% (inactive)

same assay, conditions: TC71 Ewing sarcoma viability, CellTiter-Glo ATP, 72 h; at 26 µM (top of the series)

SMILES	activity change, negative = cytotoxicity
COc1ccc(NS(=O)(=O)c2cc(NC(=O)CNC(=O)c3cccc(OC)c3)ccc2C)cc1	-0.075% (inactive)
O=C1Nc2ccccc2C1=Nc1ccc(Br)cc1	-5.59% (inactive)
C=CCOC(=O)c1sc(NC(=O)c2ccc(OC)cc2)nc1C	-3.67% (inactive)
COc1ccc(Nc2oc(COc3ccccc3OC)nc2C#N)cc1	0.131% (inactive)
O=c1c2ccccc2oc2ccc(C#CC3(O)CCCCC3)cc12	-10.3% (inactive)
COc1ccc(N=C2C(=O)Nc3ccc(C)c(Br)c32)cc1	5.89% (inactive)
O=C1Nc2cc(C(=O)NCCN3CCCCCC3)ccc2S/C1=C\c1ccccc1	-2.13% (inactive)
COC(=O)C[C@@H]1CC[C@@H]2[C@H](COc3ccc(NC(=O)Nc4cccc(Cl)c4)cc3C(=O)N2C)O1	-5.82% (inactive)
Cc1nc2cc(-c3ccc(Cl)cc3)nn2c(C)c1CCC(=O)NC(C)c1ccc2c(c1)OCCO2 (configuration not stated)	14.2% (inactive)
COCc1cc(C)nc2sc(C(=O)NCCO)c(-n3cccc3)c12	3.9% (inactive)
COc1ccc(C=NNc2nc3ccccc3s2)cc1	-1.49% (inactive)
Cc1ccc2oc(/N=C(\N)NC(=O)C(C)(C)C)nc2c1	2.46% (inactive)
C[C@@H]1CN([C@H](C)CO)S(=O)(=O)c2ccc(C#CC3CC3)cc2O[C@@H]1CN(C)Cc1ccccc1F	-4.35% (inactive)
CN(C)C(=O)c1ccc(-c2ccccc2[C@@H]2[C@@H](CO)N(C(=O)C3CC3)[C@H]2C#N)cc1	25.5% (inactive)
Cc1ccc(-c2ccc3c(c2)O[C@@H](CN(C)C(=O)Nc2ccc(F)cc2)[C@H](C)CN([C@@H](C)CO)S3(=O)=O)cc1	-12.5% (inactive)
O=C(NC1CCCC1)C(c1ccccc1)n1c(CSCCOc2ccccc2)nc2ccccc21 (configuration not stated)	3.49% (inactive)
CCCN1C(=O)/C(=C/c2nc3ccccc3c(=O)[nH]2)c2ccccc21	3.09% (inactive)
C[C@@H]1CN([C@H](C)CO)C(=O)c2cc(C#CCc3ccccc3)cnc2O[C@@H]1CN(C)Cc1cccc(F)c1	-4.64% (inactive)
O=C1C(=O)N(CCS(=O)(=O)c2ccccc2)c2ccc(Cl)cc21	20.1% (inactive)
CNC[C@H](CC1CCCCC1)NC[C@H](CO)NCCc1cccc(C(F)(F)F)c1	3.89% (inactive)
COc1cc(/C=N/NS(=O)(=O)c2ccc3ccccc3c2)ccc1OCc1ccc(C(=O)O)cc1	12.1% (inactive)
CC(C)(C)c1ccc(Oc2ccc(NC(=O)C3CC=CCC3C(=O)O)cc2)cc1 (configuration not stated)	-20.1% (inactive)
CC(=O)Nc1cc(C(=O)NCc2ccco2)ccc1Sc1ccc(F)cc1	-1.03% (inactive)
Cc1c(CC(=O)NCCCC(=O)O)c(=O)oc2cc3c(cc12)CCC(C)(C)O3	4.66% (inactive)
O=C(O)c1ccc(N/N=C/c2c[nH]c3ccccc23)cc1	19.2% (inactive)
O=c1oc2cc(O)ccc2s1	-26.8% (inactive)
CCCNC(=O)[C@@H]1[C@@H](CO)[C@@H]2Cn3c(ccc(-c4ccccc4)c3=O)[C@H]1N2C(=O)CC	0.956% (inactive)
Cc1c(-c2nc(-c3ccc(C(C)(C)C)cc3)no2)n(C)oc1=O	-0.627% (inactive)

SMILES	activity change, negative = cytotoxicity
COc1ccc(C(=O)Nc2cccc(C(=O)N/N=C/c3ccc(OC)cc3OC)c2)cc1	11.2% (inactive)
Cc1ccc(/C=C/C(=O)N2CCN(S(=O)(=O)c3c(C)c(C)cc(C)c3C)CC2)o1	-5.96% (inactive)
COC(=O)C[C@@H]1CC[C@@H]2[C@H](COc3ccc(NC(=O)Nc4cccc(C#N)c4)cc3C(=O)N2C)O1	5.41% (inactive)
CCc1ccc(N2C=C(C(=O)OC)C(c3ccc(OC)cc3)C(C#N)=C2N)cc1 (configuration not stated)	-7.67% (inactive)
CCC(C)Cn1c(O)cc2nn(-c3nc4ccccc4s3)c(=O)c-2c1C (configuration not stated)	-4.93% (inactive)
Cc1c(N=Cc2cc(Br)cc(Br)c2O)cccc1C(=O)O	25.2% (inactive)
O=c1c2ccccc2oc2cc(C#CC3(O)CCCCC3)ccc12	-17.6% (inactive)
Cc1cc(Br)ccc1N=C1C(=O)Nc2ccccc21	6.85% (inactive)
CN(C)c1ccc(N=Nc2ccccc2Br)cc1	-15.6% (inactive)
COC(=O)C[C@@H]1CC[C@H]2[C@H](COc3ccc(NC(=O)Nc4cc(C)cc(C)c4)cc3C(=O)N2C)O1	5.7% (inactive)
Cc1sc2nc(CN3CCC(C)CC3)nc(Cl)c2c1C	16.2% (inactive)
c1ccc(-c2ccc([C@H]3[C@H]4CNC[C@@H]3N4Cc3cc(-c4ccccc4)on3)cc2)cc1	-7.89% (inactive)
COc1ccc(/C=C2\SC(=S)N(CCCC(=O)NNC(=O)c3ccccc3O)C2=O)cc1	-6.8% (inactive)
CCOc1ccccc1CNC(=O)c1ccc(Sc2ccc(Cl)cc2)c(NC(C)=O)c1	-3.24% (inactive)
CCOc1ccc(C(c2c(NC(=O)c3ccccc3)sc(C)c2C)N2CCN(CCO)CC2)cc1 (configuration not stated)	16.1% (inactive)
CCOc1ccc(/C=C2\CCc3ccccc3C2=O)cc1	4.42% (inactive)
CC(=NNc1ccc2ccccc2n1)c1ccccc1O	-20.9% (inactive)
CC(=O)c1ccc(N=Nc2ccc(C)cc2)cc1	13.2% (inactive)
CC(=O)c1ccc(N(C(=O)Cn2nnc3ccccc32)C(C(=O)NCc2ccccc2)c2ccccn2)cc1 (configuration not stated)	9.64% (inactive)
CC(C)NC(=O)N(C)C[C@@H]1Oc2cc(C#Cc3ccc(F)cc3)ccc2S(=O)(=O)N([C@H](C)CO)C[C@H]1C	4.97% (inactive)
Cc1cc(C)cc(OCC(=O)OCC(=O)Nc2cc(S(=O)(=O)N3CCOCC3)ccc2C)c1	5.46% (inactive)
COC(=O)c1c(C)[nH]c(/C=N/Nc2ccccc2)c1C	7.36% (inactive)
COc1cc(OC)cc(-c2cc3nc(C)c(CCC(=O)NCc4ccccc4)c(C)n3n2)c1	9.58% (inactive)
CCCCNC(=O)C(c1ccc(OCC(=O)OC)c(C(=O)OC)c1)N(CCOC)C(=O)CCCCCN1C(=O)NC(c2ccc(-c3ccccc3)cc2)C(C(=O)OCc2ccccc2)=C1C (configuration not stated)	19.3% (inactive)
COc1ccc(S(=O)(=O)N=Nc2c(O)[nH]c3ccccc23)cc1	5.63% (inactive)
COc1ccc(OC)c(-c2cc(C(F)(F)F)c3c(n2)sc2c(O)cc(=O)[nH]c23)c1	-3.31% (inactive)
Cc1ccc(N=C2NC(=O)/C(=C\c3cccs3)S2)cc1C	-0.931% (inactive)
